Results: US20110231103A1, “METHODS FOR DETERMINING MOLECULAR PHARMACOLOGY USING LABEL-FREE INTEGRATIVE PHARMACOLOGY” (priority 2010, published 2011)

Assays:
A431 cells = assay: DMR primary profiles of known GPCR agonists in A431 cells (receptor panning, cluster analysis); type: cell-based, human; conditions: each agonist at 10 micromolar, max-min of 40 picometer cutoff
Method: (§1) Cells were typically grown using ˜1 to 2×10^4 cells per well at passage 3 to 15 suspended in 50 μl of the corresponding culture medium in the biosensor microplate, and were cultured at 37° C. under air/5% CO2 for ˜1 day. Except for A431 cells which underwent one day (at least 14 hours) culture followed by one day (at least 14 hours) starvation in serum free medium, all other cells were directly assayed without starvation. The confluency for all cells at the time of assays was ˜95% to 100%.
An Epic® beta version wavelength interrogation system (Corning Inc., Corning, N.Y.) was used for whole cell sensing. This system consists of a temperature-control unit, an optical detection unit, and an on-board liquid handling unit with robotics. The detection unit is centered on integrated fiber optics, and enables kinetic measures of cellular responses with a time interval of ˜15 sec.
(§2) For biosensor cellular assays, molecule solutions were made by diluting the stored concentrated solutions with the HBSS (1× Hanks balanced salt solution, plus 20 mM Hepes, pH 7.1), and transferred into a 384well polypropylene molecule storage plate to prepare a molecule source plate. Both molecule and marker source plates were made separately when a two-step assay was performed. In parallel, the cells were washed twice with the HBSS and maintained in 30 μl of the HBSS to prepare a cell assay plate. Both the cell assay plate and the molecule and marker source plate(s) were then incubated in the hotel of the reader system. After ˜1 hr of incubation the baseline wavelengths of all biosensors in the cell assay microplate were recorded and normalized to zero. Afterwards, a 2 to 10 minute continuous recording was carried out to establish a baseline, and to ensure that the cells reached a steady state. Cellular responses were then triggered by pipetting 10 μl of the marker solutions into the cell assay plate using the on-board liquid handler.
All studies were carried out at a controlled temperature (28° C.). At least two independent sets of experiments, each with at least three replicates, were performed. […] A typical DMR signal of cells, as measured using Epic system, is a real time kinetic response which consists a baseline pre-stimulation (often normalized to zero), and a cellular response post stimulation.
To pan endogenous G protein-coupled receptors (GPCRs) that are functional in label-free biosensor cellular assays, a library of known GPCR agonists was made. A431 cells were grown to monolayer on the Epic® 384well biosensor cell culture compatible microplates and subject to overnight starvation. After replacing the cell medium with 1×HBSS buffer and reaching equilibrium within the Epic® system, the cells were stimulated with known GPCR agonists, each at 10 micromolar. The known adenylate cyclase activator forskolin was also included as a positive control for the cAMP-PKA pathway.
Pattern recognition and pattern matching can be used to visualize their relations. However, when the numbers of molecule biosensor primary profiles increase dramatically, it becomes more difficult to use conventional pattern recognition methods, such as supervised learning, to study the relations of the molecule primary indices. Clustering analysis has been widely and successfully used in gene expression and protein network analysis which often deals with large datasets. Thus, clustering analysis and its parameters were identified herein to categorize the molecule primary indices. Both Hierarchical and k-Means clustering methods were examined. […] Here a max-min of 40 picometer was used as a cutoff to filter the original data. This heat map was generated using the real responses of each GPCR agonist at a 1-min time interval post stimulation.

β2-AR = molecular target: T1, β2-AR (Homo sapiens, UniProt P07550); assay: DMR assays of a panel of β2-AR ligands in quiescent A431 cells, multi-parameter and cluster analysis; type: cell-based; conditions: for heat map classification of β2-AR agonist pharmacology based on DMR parameters: DMR parameters normalized to the epinephrine response; for saturating concentration for the DMR signal: FIG. 7
T1 construct: All of these receptors were endogenously expressed in A431 cells, as confirmed by quantitative RT-PCR; endogenous in cells; host or cells: quiescent (serum-starved) A431 cells
Method: as §1, §2
Label-free receptor assays allow a greater array of changes in the receptor to be detected. […] The heat map was generated using the Euclidean hierarchical cluster analysis, after all DMR parameters were normalized to the epinephrine response.

[1] = tested on: 15 marker/4 cell line panel (A549, A431, HT29, HepG2 cells); assay: Biosensor modulation indices against a 15 marker/4 cell line panel, Hierarchical Euclidean cluster analysis; type: cell-based; conditions: 15 markers at EC100 in A549, A431, HT29, HepG2 cells; library of ~2000 compounds
Method: as §1, §2
To study the influence of molecules on a marker-induced response, a second stimulation with the marker at a fixed dose (typically at EC80 or EC 100) was applied. The resonant wavelengths of all biosensors in the microplate were normalized again to establish a second baseline, right before the second stimulation. The two stimulations were usually separated by ˜1 hr.
To further explore the potential of cluster analysis for label-free integrative pharmacology, a library of ˜2000 compounds were subject to label-free integrative pharmacology analysis against a 15 marker/4 cell line panel. The cell/marker panel consists of the A549 cell (the mitochondria KATP opener pinacidil, the TLR3 agonist poly(I:C), the protein kinase C activator PMA, the adenylate cyclase activator forskolin, the PAR2 agonist SLIGKV, and the histamine H1 receptor agonist histamine), A431 cells (the β2AR agonist epinephrine, the EGFR agonist EGF, the GPR109A agonist nicotinic acid, and the histamine H1 receptor agonist histamine), HT29 cells (the EGFR/HER2 agonist EGF, the neurotensin receptor NTS1/NTS3 agonist neurotensin, the IGF1 receptor IGF1, and the hERG activator mallotoxin), and the HepG2 cell (the TL9 agonist ODN2006). All molecules in the library were screened in four cell lines to produce a library of biosensor primary indices. In addition, all molecules in the library were also screened in the four cell lines against each respective marker at EC100 to produce a library of biosensor modulation indices. The modulation indices were generated by normalizing the marker DMR signal in the presence of a molecule to the marker DMR in the absence of a molecule. For each marker, one or two specific DMR events were used for normalization. For A549 cells, it is pinacidil (the N-DMR at 30 min; pinacidil), Poly(I:C) (the P-DMR at 50 min, poly(I:C)), PMA (the P-DMR at 50 min, PMA), SLIGKV (the P-DMR at 20 min, SLIGKV), forskolin (the P-DMR at 50 min, Forskolin), Histamine (the P-DMR at 10 min, His1; the P-DMR at 30 min, His2) (the bolded name was indicated in FIG. 6, the same is for the below). For A431 cells, it is epinephrine (the P-DMR at 50 min, Epi), nicotinic acid (the N-DMR at 3 min, NA), EGF (the P-DMR at 5 min, EGF1; the N-DMR at 40 min, EGF2), and histamine (the P-DMR at 3 min, His3).

T1 sequence (P07550 whole entry): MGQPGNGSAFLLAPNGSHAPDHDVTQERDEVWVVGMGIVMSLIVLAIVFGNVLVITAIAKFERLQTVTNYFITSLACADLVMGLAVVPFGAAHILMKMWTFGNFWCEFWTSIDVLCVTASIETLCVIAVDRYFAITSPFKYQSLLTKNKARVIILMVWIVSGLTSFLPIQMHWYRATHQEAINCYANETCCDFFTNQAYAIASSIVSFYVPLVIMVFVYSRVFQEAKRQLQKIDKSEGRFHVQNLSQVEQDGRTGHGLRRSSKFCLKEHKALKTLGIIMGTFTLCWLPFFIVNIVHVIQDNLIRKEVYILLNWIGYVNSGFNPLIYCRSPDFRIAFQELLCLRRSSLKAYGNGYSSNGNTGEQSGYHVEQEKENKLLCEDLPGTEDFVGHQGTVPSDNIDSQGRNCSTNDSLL

| SMILES | cluster of the agonist-induced primary DMR signal (two dimensional Hierarchical clustering, heat map) (A431 cells) | heat map classification of β2-AR agonist pharmacology based on DMR parameters (β2-AR) | node cluster by biosensor modulation index (similarity to known anti-histamines) [1] | other results |
| --- | --- | --- | --- | --- |
| CNC(=O)[C@H]1O[C@@H](n2cnc3c(NCc4cccc(I)c4)ncnc32)[C@H](O)[C@@H]1O [IB-MECA] | belong to the same cluster |  |  |  |
| OC[C@H]1O[C@@H](n2cnc3c(NC4CCCC4)nc(Cl)nc32)[C@H](O)[C@@H]1O [CCPA] | belong to the same cluster |  |  |  |
| CNC[C@H](O)c1ccc(O)c(O)c1 [epinephrine] |  | full agonists and strong partial agonists |  | amplitudes of the DMR signal (β2-AR): maximum amplitudes; kinetics for the P-DMR event (β2-AR): slow kinetics; transition time of the DMR signal (β2-AR): fast transition time; saturating concentration for the DMR signal (β2-AR): 0.008 µM |
| CNCC(O)c1ccccc1 (centres unmarked) [halostachine] |  | partial agonists |  | amplitudes of the DMR signal (β2-AR): smaller amplitudes; kinetics for the P-DMR event (β2-AR): faster kinetics; transition time of the DMR signal (β2-AR): slightly slower transition time |
| CN(C)CCCN1c2ccccc2Sc2ccc(Cl)cc21 [Chlorpromazine] |  |  | specific node cluster that consists of 8 compounds |  |
| NC[C@H](O)c1ccc(O)c(O)c1 [norepinephrine] |  | full agonists and strong partial agonists |  | saturating concentration for the DMR signal (β2-AR): 0.1 µM |
| Nc1ncnc2c1ncn2[C@@H]1O[C@H](CO)[C@@H](O)[C@H]1O [adenosine] | belong to the same cluster |  |  |  |
| Oc1ccccc1O [catechol] |  | between the second and third group |  | amplitudes of the DMR signal (β2-AR): smaller amplitudes; kinetics for the P-DMR event (β2-AR): faster kinetics; transition time of the DMR signal (β2-AR): slightly slower transition time; saturating concentration for the DMR signal (β2-AR): 500 µM |
| O=C(NCCNCC(O)COc1ccc(O)cc1)N1CCOCC1 (centres unmarked) [xamoterol] |  | between the second and third group |  |  |
| CCNC(=O)[C@H]1O[C@@H](n2cnc3c(N)nc(NCCc4ccc(CCC(=O)O)cc4)nc32)[C@H](O)[C@@H]1O [CGS21680] | belong to the same cluster |  |  |  |
| CC(C)NCC(O)COc1cccc2[nH]ccc12 (centres unmarked) [pindolol] |  | beta-blockers with weak partial agonism activity |  |  |
| NCCc1ccc(O)c(O)c1 [dopamine] |  | partial agonists |  | saturating concentration for the DMR signal (β2-AR): 32 µM |
| Cc1nc2n(c(=O)c1CCN1CCC(c3noc4cc(F)ccc34)CC1)CCCC2 [risperidone] |  |  | specific node cluster that consists of 8 compounds |  |
| Fc1ccc(C(c2ccc(F)cc2)N2CCN(C/C=C/c3ccccc3)CC2)cc1 [flunarizine] |  |  | specific node cluster that consists of 8 compounds |  |
| O=c1cc(N2CCNCC2)oc2c(-c3ccccc3)cccc12 [LY303511] |  |  | can also be a histamine H1R or a H1R pathway antagonist |  |
| C[C@@H]1CN([C@H]2CC[C@](C#N)(c3ccc(F)cc3)CC2)CC[C@]1(C(=O)O)c1ccccc1 [levocabastine] |  |  | specific node cluster that consists of 8 compounds |  |
| O=c1ccn([C@@H]2O[C@H](COP(=O)(O)OP(=O)(O)OP(=O)(O)O)[C@@H](O)[C@H]2O)c(=O)[nH]1 [UTP] | belong to the same cluster |  |  |  |
| Nc1ncnc2c1ncn2[C@@H]1O[C@H](COP(=O)(O)OP(=O)(O)OP(=O)(O)O)[C@@H](O)[C@H]1O [ATP] | belong to the same cluster |  |  |  |
| CN1CCC(=C2c3ccccc3CC(=O)c3sccc32)CC1 [ketotifen] |  |  | specific node cluster that consists of 8 compounds |  |
